Assays:
[1] = system: anti-ApoA-I antibodies in plasma samples from three different patients; assay: Competition ELISA with plasma of three individual anti-ApoA-I-positive patients; type: binding, human; details: preincubated 2 h at room temperature with peptide, n = 3 (Fig 3)
Procedure: We next performed ELISA assays using plasma samples from three different anti-ApoA-I autoantibody-positive patients from the cohort pre-incubated with Peptide F, a scrambled version of Peptide F (Table 1), or the stapled peptide F3L1 prior to addition to wells coated with ApoA-I (Fig 3).
Plasma samples were preincubated (2 h, room temperature) with peptides at the indicated concentrations prior to addition to assay wells. Percent maximal ELISA signals were calculated as 100 × ([signal in well]-[mean background signal (uncoated well)])/ ([mean maximal signal (no peptide)]-[mean background signal]). Results are expressed as mean ± SD (n = 3).

[2] = system: human monocyte-derived macrophages; assay: Anti-ApoA-I IgG-mediated IL-6 and TNF-α release from human monocyte-derived macrophages; type: cell-based; details: peptide preincubated with anti-ApoA-I IgG 2 h at room temperature; highest concentration 1 mg/mL (Fig 5, 6)
Procedure: Human monocytes were isolated from buffy coats from healthy donors at the Geneva University Hospitals Blood Transfusion Center and differentiated into macrophages by 24 h incubation with IFN-γ (500 U/ml) in complete RPMI-1640 culture medium (10% heat-inactivated FCS, 50 μg/ml streptomycin, 50 U/ml penicillin, 2 mM L-glutamine), as previously described. Assays of anti-ApoA-I IgG-mediated release of IL-6 and TNF-α from human monocyte-derived macrophages was carried out as described previously using a previously determined optimal concentration of polyclonal goat anti-ApoA-I IgG (40 μg/ml). Endotoxin contamination in the assay was excluded using the limulus amebocyte lysate Endochrome assay. Where indicated, anti-ApoA-I IgG was pre-incubated with peptide […] (1 mg/mL) for 2 h at room temperature prior addition to the cells. Each experiment was performed on cells from […] different healthy blood donors. […] We next used a Luminex assay to measure the capacity of peptide […] to inhibit endotoxin-free anti-ApoA-I IgG-mediated proinflammatory cytokine release in human monocyte-derived macrophages (Fig 5a and 5b). As expected from previously published work, anti-ApoA-I IgG elicited a significant increase in production of both in IL-6 and TNF-α when compared to control IgG (Ctl IgG; p<0.0001 for both cytokines). […] We were unable to measure the inhibitory activity of intact purified and delipidated ApoA-I in this assay because traces of endotoxin elicit significant levels of background cytokine secretion (NV and SP, unpublished observations).  Fig 5 Peptide […] inhibits anti-ApoA-I IgG-mediated release of proinflammatory cytokines from cultured human monocyte-derived macrophages. Release of proinflammatory cytokines TNF-α (a) IL-6 (b) from human monocyte-derived macrophages induced by endotoxin-free goat polyclonal anti-ApoA-I IgG was determined with or without preincubation (2 h at room temperature) of the anti-ApoA-I IgG with peptide […] (1 mg/mL) and the corresponding scrambled peptide (Scr Pept). […] Anti-ApoA-I IgG was incubated with the indicated […] concentrations (preincubation 2 h at room temperature) prior to addition to cultured human monocyte-derived macrophages. Levels of proinflammatory cytokines were determined after 24 h culture. Experiments were repeated using cells from three different healthy donors, with results expressed as median, interquartile range (IQR) and range.

RAW cells = assay: Anti-ApoA-I IgG-induced TNF-α release in RAW mouse macrophage cell line; type: cell-based; details: anti-ApoA-I IgG 100 μg/ml preincubated 2 h with peptide 100 to 0.06 μg/ml; 24 h stimulation; ELISA; n = 3 (Fig 7)
Procedure: Raw cells were seeded in 96-well plates at 2 × 10^5 cells/well in DMEM culture medium (10% heat-inactivated FCS, 50 μg/ml streptomycin, 50 U/ml penicillin) for 24 h. Anti-Apo-A1 IgG (100 μg/ml) were incubated with peptides across a concentration range from 100 μg/ml to 0.06 μg/ml for 2 h at room temperature prior addition to cells. After 24 h stimulation, mouse TNF-α was quantified in the cell supernatants by ELISA according to manufacturer’s instructions (R&D system, MN).
Fig 7 Comparing the inhibitory potency of Peptide F and F3L1 on anti-ApoA-I IgG-induced TNF-α. Anti-ApoA-I IgG was incubated with the indicated peptide concentrations (preincubation 2 h at room temperature) prior to addition to cultured RAW cells. Levels of proinflammatory cytokines (TNF-α) were determined after 24 h culture. Mean levels (n = 3) are shown with error bars indicating the range.

[3] = system: anti-ApoA-I autoantibodies in pooled patient plasma; assay: Capture ELISA: immunoreactivity of pooled anti-ApoA-I-positive patient plasma to coated peptides; type: binding, human; details: pooled plasma of anti-ApoA-I-positive patients; peptide as coating antigen; mean ± SD, n = 3 (Fig 1a)
Procedure: Anti-ApoA-I IgG autoantibodies in plasma were measured as described previously. Briefly, Maxisorp plates (Nunc) were coated with purified and delipidated human ApoA-I, diluted in carbonate buffer pH 9.7 (20 μg/ml; 50 μl/well), for 1 h at 37°C. The same procedure was used for the engineered peptides. After three washes with PBS/ 2% (w/v) BSA (100 μl/well), all wells were blocked for 1 h with PBS/ 2% (w/v) BSA at 37°C. Samples were diluted 1:50 in PBS/ 2% (w/v) BSA and incubated for 60 min at 37°C. Samples at the same dilution were also added to a non-coated well to assess individual non-specific binding. After six further washes, 50 μl/well of alkaline-phosphatase conjugated anti-(human IgG) (Sigma-Aldrich), diluted 1:1000 in PBS/ 2% (w/v) BSA, was incubated for 1 h at 37°C. After six more washes (150 μl/well) with PBS/ 2% (w/v) BSA, the phosphatase substrate p-nitrophenyl phosphate (50μl/well; 1mg/ml; Sigma—Aldrich) dissolved in 4.8% (w/v) diethanolamine (pH 9.8) was added. Each sample was tested in duplicate and A 405nm was determined after 20 min of incubation at 37°C (VERSAMax; MolecularDevices). The corresponding non-specific binding was subtracted from the mean absorbance for each sample. As in previous studies, positive immunoreactivity of human samples to ApoA-I was prospectively defined by an index >37%. This value was also used to define positive immunoreactivity to mimetic peptides, as defined upon receiver operating characteristic (ROC) curve analyses, and shown to provide an identical prevalence of positive immunoreactivity levels 11% […] to native ApoA-1 and 11% (14/132) to F3L1 peptide (data not shown). Repeatability and reproducibility were determined at two levels. At a high level (A 405nm = 1.2, i.e. twice the cut-off value), the intra- and inter-assay coefficients of variation were 10% (n = 10) and 17% (n = 10) respectively. At the cut-off level, the intra- and inter-assay coefficients of variation were 16% (n = 10) and 12% (n = 8) respectively.
In order to characterize the anti-ApoA-I autoantibody response, we chemically synthesized a panel of peptides corresponding to the different alpha-helical regions in the protein (Table 1). Each of the two longest helical regions, C and D, were synthesized as two separate peptides (C1, C2, D1, D2) whose sequences are located on either side of centrally located proline residues (Pro^121 for Region C, Pro^165 for Region D (Table 1)). The synthetic peptides were then used as coating antigens in a capture ELISA experiment to compare their immunoreactivity against pooled plasma from a subset of patients from our acute chest pain cohort that had previously shown to be positive for anti-ApoA-I autoantibodies (Fig 1a).
(§1) Fig 1 The anti-ApoA-I autoantibody response is strongly biased towards the C-terminal alpha-helical region. ELISA experiments were carried out using a set of ApoA-I-derived peptides (Table 1). a. Capture ELISA assay to determine the immunoreactivity of plasma pooled from patients known to be positive for anti-ApoA-I autoantibodies against the set of peptides. Specific ELISA signals were calculated as [signal in well]-[mean background signal (uncoated well)]. Results are expressed as mean ± SD (n = 3) b and c. Competition ELISA to determine the capacity of the set of peptides to block binding of anti-ApoA-I antibodies from either pooled patient plasma (b) or goat polyclonal IgG (c) to immobilized ApoA-I. Plasma or antibody was preincubated (2 h, room temperature) with peptides at the indicated concentrations prior to addition to assay wells. Percent maximal ELISA signals were calculated as 100 × ([signal in well]-[mean background signal (uncoated well)])/([mean maximal signal (no peptide)]-[mean background signal]). Results are expressed as mean ± SD (n = 3).

[4] = system: anti-ApoA-I antibodies from pooled patient plasma; assay: Competition ELISA: peptides block binding of antibodies from pooled patient plasma to immobilized ApoA-I; parameters: species or system human; details: pooled patient plasma preincubated 2 h at room temperature with peptide; wells coated with intact ApoA-I (Fig 1b)
Procedure: as §1, with “3). […] In contrast, when pre-incubated with goat polyclonal anti-ApoA-I IgG, none of the peptides, including Peptide F, decreased signal inhibition by 15% at the highest concentration (Fig 1c). […]” for “3).”

[5] = system: goat polyclonal anti-ApoA-I IgG; assay: Competition ELISA: peptides block binding of goat polyclonal IgG to immobilized ApoA-I; details: goat polyclonal anti-ApoA-I IgG preincubated with peptide; wells coated with ApoA-I (Fig 1c)
Procedure: as §1, with “3). […] In contrast, when pre-incubated with goat polyclonal anti-ApoA-I IgG, none of the peptides, including Peptide F, decreased signal inhibition by 15% at the highest concentration (Fig 1c). […]” for “3).”

| Substance | plasma immunoreactivity (specific ELISA signal) to coated peptide [3] | further results |
| --- | --- | --- |
| KELYLLKFTVESKVGSTELPLNFSLA [F (scrambled), scrambled version of Peptide F, control peptide, reference compound] |  | inhibition of binding of anti-ApoA-I IgG to immobilized ApoA-I [1]: No inhibition was detectable; inhibition of anti-ApoA-I IgG-induced TNF-α and IL-6 release [2]: did not inhibit; inhibitory potency on anti-ApoA-I IgG-induced TNF-α (RAW cells): no detectable inhibitory activity |
| B: ApoA-I-derived peptide, residues 50–84 (WDSVTSTFSKLREQLGPVTQEFWDNLEKETEGLRQ; UniProt P02647 74-108, looked up, fragment) | intermediate signals |  |
| C1: ApoA-I-derived peptide, residues 97–120 (VQPYLDDFQKKWQEEMELYRQKVE; UniProt P02647 121-144, looked up, fragment) [Peptide C1] | low signals |  |
| GLLPVLESFKVSFLSALEEYTKKLNT [Peptide F, ApoA-I-derived peptide, residues 220–242, C-terminal alpha-helix] | strongest signal | maximal inhibition plateau of total anti-ApoA-I signal [4]: approximately 50%; peptide concentration above which inhibition of ELISA signal is seen [4]: above 3 μM; decrease of ELISA signal at the highest peptide concentration [5]: < 15%; inhibition of anti-ApoA-I IgG-induced TNF-α and IL-6 release [2]: comparable to that of F3L1 |
| E: ApoA-I-derived peptide, residues 190–213 (AEYHAKATEHLSTLSEKAKPALED; UniProt P02647 214-237, looked up, fragment) | low signals |  |
| LGEEMRDRARAHVDALRTHLAPYSDEL [Peptide D1, ApoA-I-derived peptide, residues 143–164] | low signals |  |
| YSDELRQRLAARLEALKENGGA [Peptide D2, ApoA-I-derived peptide, residues 166–187] | low signals |  |
| C2: ApoA-I-derived peptide, residues 122–142 (LRAELQEGARQKLHELQEKLS; UniProt P02647 146-166, looked up, fragment) [Peptide C2] | intermediate signals |  |
| A: ApoA-I-derived peptide, residues 10–39 (RVKDLATVYVDVLKDSGRDYVSQFEGSALG; UniProt P02647 34-63, looked up, fragment) | low signals |  |

From paper PMC4503694, “The Human Autoantibody Response to Apolipoprotein A-I Is Focused on the C-Terminal Helix: A New Rationale for Diagnosis and Treatment of Cardiovascular Disease?” (PLoS ONE, 2015)
